Laboratory results: ChEMBL document CHEMBL5715942, “A novel histone deacetylase 8 (HDAC8)-specific inhibitor PCI-34051 induces apoptosis in T-cell lymphomas” (Leukemia, 2008)
The source made the active and inactive calls. The calls are words filed in the database; no cut-off is given here.

Columns and labels:
J.gamma1 [1] = test: Induction of apoptosis in human J.gamma1 cells at 10 uM incubated for 2 days in presence of U-73343 by Annexin-V staining based flow cytometry analysis; format: functional, cell-based; settings: time 2.0 day
SUD4 [2] = test: Anti-proliferative activity against human SU-DHL-4 cells assessed as growth inhibition incubated for 72 hrs by alamar blue staining based fluorometric assay; format: functional
Jurkat [3] = test: Induction of apoptosis in human Jurkat cells assessed as increase in intracellular calcium level at 2.5 to 10 uM incubated for 5 mins in presence of Iodo-1 and Ionomycin by spectrofluorimetric analysis; format: functional, cell-based; settings: dose 2.5-10 µM
RPMI-8226 = test: Induction of apoptosis in human RPMI-8226 cells assessed as cell death at 5 uM incubated for 2 days by Annexin-V staining based flow cytometry analysis; format: functional; settings: time 2.0 day
J.gamma1 [4] = test: Induction of apoptosis in human J.gamma1 cells assessed as cytochrome c release from mitochondria at 10 uM incubated for 12 to 24 hrs by Western blotting analysis; format: functional, cell-based; settings: time lower 12.0 hrs, time upper […]
Ramos = test: Induction of apoptosis in human Ramos cells assessed as cell death at 5 uM incubated for 2 days by Annexin-V staining based flow cytometry analysis; format: functional; settings: time 2.0 day
Jurkat [5] = test: Induction of apoptosis in human Jurkat cells assessed as cell death at 5 uM incubated for 2 days by Annexin-V staining based flow cytometry analysis; format: functional; settings: time 2.0 day
J.gamma1 [6] = test: Induction of apoptosis in human J.gamma1 cells at 5 uM incubated for 24 hrs in presence of thapsigargin by Annexin-V staining based flow cytometry analysis relative to control; format: functional
Jurkat [7] = test: Downregulation of apoptosis in human Jurkat cells at 10 uM incubated for 2 days in presence of U-73343 by Annexin-V staining based flow cytometry analysis; format: functional, cell-based; settings: time 2.0 day
MOLT-4 [8] = test: Induction of apoptosis in human MOLT-4 cells assessed as cell death at 5 uM incubated for 2 days by Annexin-V staining based flow cytometry analysis; format: functional; settings: time 2.0 day
HeLa = test: Anti-proliferative activity against human HeLa cells assessed as growth inhibition incubated for 72 hrs by alamar blue staining based fluorometric assay; format: functional
K562 [9] = test: Anti-proliferative activity against human K562 cells assessed as growth inhibition incubated for 72 hrs by alamar blue staining based fluorometric assay; format: functional
HuT78 [10] = test: Induction of apoptosis in human HuT78 cells assessed as cell death at 5 uM incubated for 2 days by Annexin-V staining based flow cytometry analysis; format: functional; settings: time 2.0 day
K562 [11] = test: Induction of apoptosis in human K562 cells assessed as cell death at 5 uM incubated for 2 days by Annexin-V staining based flow cytometry analysis; format: functional; settings: time 2.0 day
HCT-116 [12] = test: Anti-proliferative activity against human HCT-116 cells assessed as growth inhibition incubated for 72 hrs by alamar blue staining based fluorometric assay; format: functional
Jurkat [13] = test: Induction of apoptosis in human Jurkat cells at 5 uM incubated for 24 hrs in presence of thapsigargin by Annexin-V staining based flow cytometry analysis relative to control; format: functional
Raji [14] = test: Induction of apoptosis in human Raji cells assessed as cell death at 5 uM incubated for 2 days by Annexin-V staining based flow cytometry analysis; format: functional; settings: time 2.0 day
DB = test: Anti-proliferative activity against human DB cells assessed as growth inhibition incubated for 72 hrs by alamar blue staining based fluorometric assay; format: functional
MCF7 [15] = test: Anti-proliferative activity against human MCF7 cells assessed as growth inhibition incubated for 72 hrs by alamar blue staining based fluorometric assay; format: functional
Jurkat [16] = test: Induction of apoptosis in human Jurkat cells assessed as decrease in FL-Bid at 5 uM incubated for 24 hrs by Western blotting analysis
U-87 MG = test: Anti-proliferative activity against human U87 cells assessed as growth inhibition incubated for 72 hrs by alamar blue staining based fluorometric assay; format: functional, U-87MG ATCC
Jurkat [17] = test: Induction of apoptosis in human Jurkat cells assessed as increase in intracellular calcium level incubated for 5 mins in presence of Iodo-1 by spectrofluorimetric analysis; format: functional, cell-based; settings: dose 2.5-10 µM
HuT78 [18] = test: Anti-proliferative activity against human HuT78 cells assessed as growth inhibition incubated for 72 hrs by alamar blue staining based fluorometric assay; format: functional
Jurkat [19] = test: Induction of apoptosis in human Jurkat cells assessed as intracellular calcium level at 10 uM in presence of Iodo-1 and U73343 by spectrofluorimetric analysis; format: functional, cell-based
OVCAR-3 [20] = test: Anti-proliferative activity against human OVCAR-3 cells assessed as growth inhibition incubated for 72 hrs by alamar blue staining based fluorometric assay; format: functional
RKO [21] = test: Induction of apoptosis in human RKO cells incubated for 72 hrs by Annexin-V staining based flow cytometry analysis relative to control; format: functional
MCF7 [22] = test: Induction of apoptosis in human MCF7 cells incubated for 72 hrs by Annexin-V staining based flow cytometry analysis relative to control; format: functional
RKO [23] = test: Anti-proliferative activity against human RKO cells assessed as growth inhibition incubated for 72 hrs by alamar blue staining based fluorometric assay; format: functional
MOLT-4 [24] = test: Anti-proliferative activity against human MOLT-4 cells assessed as growth inhibition incubated for 72 hrs by alamar blue staining based fluorometric assay; format: functional
CCRF-HSB-2 [25] = test: Anti-proliferative activity against human CCRF-HSB-2 cells assessed as growth inhibition incubated for 72 hrs by alamar blue staining based fluorometric assay; format: functional
THP-1 = test: Anti-proliferative activity against human THP-1 cells assessed as growth inhibition incubated for 72 hrs by alamar blue staining based fluorometric assay; format: functional
Jurkat [26] = test: Anti-proliferative activity against human Jurkat cells assessed as growth inhibition incubated for 72 hrs by alamar blue staining based fluorometric assay; format: functional
Jurkat [27] = test: Induction of apoptosis in human Jurkat cells assessed as PARP cleavage at 5 uM incubated for 48 hrs by Western blotting analysis; format: functional, cell-based
Jurkat [28] = test: Induction of apoptosis in human Jurkat cells assessed as decrease in intracellular calcium level at 10 uM in presence of Iodo-1 and U73122 by spectrofluorimetric analysis; format: functional, cell-based
HCT-116 [29] = test: Induction of apoptosis in human HCT-116 cells incubated for 72 hrs by Annexin-V staining based flow cytometry analysis relative to control; format: functional
Jurkat [30] = test: Induction of apoptosis in human Jurkat cells assessed as increase in cytosolic cytochrome c level at 10 uM incubated for 12 to 24 hrs by Western blotting analysis; format: functional, cell-based; settings: time lower 12.0 hrs, time upper […]
Jurkat [31] = test: Downregulation of apoptosis in human Jurkat cells incubated for 24 hrs in presence of BAPTA-AM by Annexin-V staining based flow cytometry analysis; format: functional, cell-based; settings: dose 10.0 µM
CCRF-HSB-2 [32] = test: Induction of apoptosis in human CCRF-HSB-2 cells assessed as cell death at 5 uM incubated for 2 days by Annexin-V staining based flow cytometry analysis; format: functional; settings: time 2.0 day
J.gamma1 [33] = test: Downregulation of apoptosis in human J.gamma1 cells at 10 uM incubated for 24 hrs in presence of BAPTA-AM by Annexin-V staining based flow cytometry analysis
SUD4 [34] = test: Induction of apoptosis in human SU-DHL-4 cells assessed as cell death at 5 uM incubated for 2 days by Annexin-V staining based flow cytometry analysis; format: functional; settings: time 2.0 day
Raji [35] = test: Anti-proliferative activity against human Raji cells assessed as growth inhibition incubated for 72 hrs by alamar blue staining based fluorometric assay; format: functional
OVCAR-3 [36] = test: Induction of apoptosis in human OVCAR-3 cells incubated for 72 hrs by Annexin-V staining based flow cytometry analysis relative to control; format: functional

With COc1ccc(Cn2ccc3ccc(C(=O)NO)cc32)cc1 the Activity (J.gamma1 [1]) was “inactive”, the GI50 (SUD4 [2]) was 8.2 µM and the Activity (Jurkat [3]) was “Active”. For the same compound, the Activity (RPMI-8226) was “inactive”, the Activity (J.gamma1 [4]) was “inactive” and the Activity (Ramos) was “inactive”. For the same compound, the Activity (Jurkat [5]) was “Active”, the Activity (J.gamma1 [6]) was 2% and the Activity (Jurkat [7]) was “inactive”. For the same compound, the Activity (MOLT-4 [8]) was “Active”, the GI50 (HeLa) was over 20 µM and the GI50 (K562 [9]) was 33.6 µM. For the same compound, the Activity (HuT78 [10]) was “Active”, the Activity (K562 [11]) was “inactive” and the GI50 (HCT-116 [12]) was over 20 µM. The Activity (Jurkat [13]) was over 30%, the Activity (Raji [14]) was “inactive” and the GI50 (DB) was 21.2 µM. For the same compound, the GI50 (MCF7 [15]) was over 20 µM, the Activity (Jurkat [16]) was “inactive” and the GI50 (U-87 MG) was 17 µM. The Activity (Jurkat [17]) was “Dose-Dependent Effect”, the GI50 (HuT78 [18]) was 4 µM and the Activity (Jurkat [19]) was “Active”. For the same compound, the GI50 (OVCAR-3 [20]) was 6 µM, the Activity (RKO [21]) was 0% and the Activity (MCF7 [22]) was 0%. It also gave a GI50 (RKO [23]) of 14 µM, a GI50 (MOLT-4 [24]) of 3.3 µM and a GI50 (CCRF-HSB-2 [25]) of 1.4 µM. For the same compound, the GI50 (THP-1) was 15.4 µM, the GI50 (Jurkat [26]) was 2.4 µM and the Activity (Jurkat [27]) was “Active”. The Activity (Jurkat [28]) was “Active”, the Activity (HCT-116 [29]) was 3% and the Activity (Jurkat [30]) was “Active”. For the same compound, the Activity (Jurkat [31]) was “Dose-Dependent Effect”, the Activity (CCRF-HSB-2 [32]) was “Active” and the Activity (J.gamma1 [33]) was “inactive”. The Activity (SUD4 [34]) was “inactive”, the GI50 (Raji [35]) was 6.8 µM and the Activity (OVCAR-3 [36]) was 15%.
